Assay [1] has as its target T1, DYRK1A (Homo sapiens, UniProt Q13627).
T1 construct: expressed in transfected cells; host or cells: 293T
Description: NFAT signaling reporter (NFAT-RE-luciferase), cell-based DYRK1A efficacy evaluation in 293T cells. The following applies: for luciferase increase effect / activity level compared with harmine and CX-4945: 10 μM; for luciferase increase effect: 293T cells, NFAT-RE-luciferase reporter, IM + PMA, DYRK1A overexpressed, among 570 candidates; for activity level compared with harmine and CX-4945: same reporter conditions; for EC50 of luciferase increase effect, fold lower than harmine and CX-4945: NFAT reporter, concentration gradient (FIG. 4); for luciferase activity compared with condition without DYRK1A overexpression: treated with 3 μM, concentration gradient, same conditions. The procedure: With respect to the 570 compounds identified as candidate DYRK1A inhibitors through the virtual screening, a secondary effect evaluation was carried out using NFAT signaling reporter which is the already well-established cell-based DYRK1A effect evaluation system (FIG. 3). NFAT signaling reporter has a very high level of dependence on DYRK1A, and thus is effective in the identifying experiment of the proper candidate DYRK1A inhibitors. DYRK1A is known to regulate calcineurin/Nuclear Factor of Activated T cells (NFAT) signals and play an important role in the stage of human development process. NFATc1 transcription factor is usually present as a protein that is phosphorylated in the cytoplasm when the Ca^2+ concentration of the cells is increased, NFATc1 is dephosphorylated by calcineurin phosphatase which is a Ca^2+-dependent protein, and NFATc1 is moved into the nucleus. NFATc1 which has entered into the nucleus and protein partner NFATn form a transcription complex, and the complex binds to the promoter of the target gene to induce the target gene expression. In contrast, DYRK1A phosphorylates NFATc1 to inhibit the movement of NFATc1 into the nucleus, and results in the inhibition of the expression of the target gene. The DYRK1A-inhibitory effect of the 570 candidates was confirmed through the transcription activity of NFATc1, and for this, a luciferase reporter containing NFAT response element (NFAT-RE) useful to measure the transcription activity of NFATc1 was used. A NFAT-RE-luciferase reporter was over-expressed in 293T cells, and was then treated with Ionomycin (IM) and phorbol 12-myristate 13-acetate (PMA) to increase the intracellular concentration of Ca^2+. As a result, the expression of luciferase was increased sharply. […] If the candidate drug treatment in this condition inhibits DYRK1A, the luciferase will be increased.

In assay [2] the target is T1, DYRK1A. Put plainly: Inhibition of Tau protein (Thr212) phosphorylation in 293T cells overexpressing Tau and DYRK1A. The class given is cell-based. The note with it: for IC50: 293T cells overexpressing Tau and DYRK1A.
Assay [3] concerns the target T1, DYRK1A. Description: In vitro kinase assay with separated and purified DYRK1A protein. Format: biochemical.
Another assay concerns the target GSK3β (Homo sapiens, UniProt P49841). Put plainly: In vitro CMGC kinase assay, GSK3β. The class given is biochemical. The note with it: in vitro kinase panel; next to DYRK1A.
The next assay has as its target C-met kinase (Homo sapiens, UniProt P08581). The following applies: existing studies; ATP competitive manner; cited from earlier work.

In general, IC50 refers to the midpoint of a concentration-inhibition curve.

Each structure is given as a SMILES string.

Sequence of C-met kinase (P08581 25-1390): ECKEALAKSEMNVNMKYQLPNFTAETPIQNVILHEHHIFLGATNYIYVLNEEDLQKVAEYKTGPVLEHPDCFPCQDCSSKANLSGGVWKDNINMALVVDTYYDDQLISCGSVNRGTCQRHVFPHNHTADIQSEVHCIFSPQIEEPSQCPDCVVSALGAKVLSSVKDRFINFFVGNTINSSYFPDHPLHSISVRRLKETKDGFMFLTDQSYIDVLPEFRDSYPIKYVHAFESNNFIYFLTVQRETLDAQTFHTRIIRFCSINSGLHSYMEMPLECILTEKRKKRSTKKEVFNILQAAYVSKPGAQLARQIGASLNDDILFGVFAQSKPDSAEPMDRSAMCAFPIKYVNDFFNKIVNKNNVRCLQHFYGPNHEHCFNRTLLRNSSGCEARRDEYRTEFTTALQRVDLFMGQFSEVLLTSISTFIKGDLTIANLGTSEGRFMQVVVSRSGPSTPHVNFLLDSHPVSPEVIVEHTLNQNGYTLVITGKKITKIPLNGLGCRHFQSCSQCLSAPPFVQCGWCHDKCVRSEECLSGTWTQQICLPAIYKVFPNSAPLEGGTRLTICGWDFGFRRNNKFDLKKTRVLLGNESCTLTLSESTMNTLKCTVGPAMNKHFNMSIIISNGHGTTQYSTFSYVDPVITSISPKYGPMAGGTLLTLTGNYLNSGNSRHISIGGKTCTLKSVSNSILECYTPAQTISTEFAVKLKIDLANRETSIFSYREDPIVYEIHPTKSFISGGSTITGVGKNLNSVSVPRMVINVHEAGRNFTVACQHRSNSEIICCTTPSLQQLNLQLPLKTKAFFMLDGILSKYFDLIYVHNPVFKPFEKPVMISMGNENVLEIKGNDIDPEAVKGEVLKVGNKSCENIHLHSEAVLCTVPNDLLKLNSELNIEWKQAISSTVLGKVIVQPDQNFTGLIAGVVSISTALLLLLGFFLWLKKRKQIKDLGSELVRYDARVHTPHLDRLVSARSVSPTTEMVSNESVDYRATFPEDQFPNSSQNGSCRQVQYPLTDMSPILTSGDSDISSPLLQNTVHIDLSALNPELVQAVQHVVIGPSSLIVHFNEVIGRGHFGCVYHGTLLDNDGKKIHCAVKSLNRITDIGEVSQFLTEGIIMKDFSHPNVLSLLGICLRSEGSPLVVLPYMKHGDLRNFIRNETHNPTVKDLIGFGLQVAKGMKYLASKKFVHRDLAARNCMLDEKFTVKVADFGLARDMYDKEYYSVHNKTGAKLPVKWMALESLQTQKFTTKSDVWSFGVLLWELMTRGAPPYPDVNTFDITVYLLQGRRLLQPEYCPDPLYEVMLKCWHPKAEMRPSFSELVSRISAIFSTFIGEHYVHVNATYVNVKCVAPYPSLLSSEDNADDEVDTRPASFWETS
Sequence of GSK3β (P49841 whole entry, species assumed): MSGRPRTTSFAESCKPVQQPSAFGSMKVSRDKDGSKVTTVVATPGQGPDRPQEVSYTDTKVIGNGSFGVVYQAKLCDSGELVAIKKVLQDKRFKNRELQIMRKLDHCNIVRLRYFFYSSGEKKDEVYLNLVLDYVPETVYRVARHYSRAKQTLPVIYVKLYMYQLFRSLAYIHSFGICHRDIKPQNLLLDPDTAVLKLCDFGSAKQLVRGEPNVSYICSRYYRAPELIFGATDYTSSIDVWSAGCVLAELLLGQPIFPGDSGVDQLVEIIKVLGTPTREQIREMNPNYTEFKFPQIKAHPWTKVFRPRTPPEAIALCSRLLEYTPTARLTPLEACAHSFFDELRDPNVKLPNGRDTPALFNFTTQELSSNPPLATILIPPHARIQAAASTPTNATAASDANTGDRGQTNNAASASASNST

For the compound `CC(=O)N1CCC(n2cc(-c3cnc(N)c(-c4nc5cnccc5o4)c3)cn2)CC1` [formula 2], on DYRK1A [1], the luciferase increase effect result is recorded as “highest luciferase increase effect”; the “activity level compared with harmine and CX-4945” value is listed as “clearly higher”; the “EC50 of luciferase increase effect, fold lower than harmine and CX-4945” value stood at 10 times; the “luciferase activity compared with condition without DYRK1A overexpression” value is recorded as “higher than the luciferase activity of the condition that DYRK1A was not overexpressed”. Moreover, the half-inhibitory concentration (IC50) at DYRK1A [2] was around 50 nM. For the same compound, the “inhibitory effect on Tau phosphorylation, times stronger than harmine, INDY and proINDY” value on DYRK1A [2] (same experimental conditions) is on record as 10-60 times. Further, the inhibition at 0.1 µM at DYRK1A [3] (100 nM concentration, read-out: inhibitory effect on DYRK1A) is around 95%. Besides, the “rank of inhibitory effect among DYRK family and CMGC kinases” value at DYRK1A [3] (in vitro kinase panel (FIG. 6)) is reported as “strongest inhibitory effect on DYRK1A”. Besides, the half-maximal inhibitory concentration (IC50) at DYRK1A [3] (predicted from inhibition at 100 nM) is around 10 nM. The “inhibitory effect on GSK3β” value against GSK3β is listed as “high inhibitory effect”. In addition, the C-met kinase inhibition entry on C-met kinase is recorded as “inhibitors of the C-met kinase”.

As to `Nc1ncc(-c2cnn(C3CCNCC3)c2)cc1-c1nc2cnccc2o1` [formula 3], on DYRK1A [1], the luciferase increase effect entry is “highest luciferase increase effect”; the “activity level compared with harmine and CX-4945” value is reported as “clearly higher”; the “EC50 of luciferase increase effect, fold lower than harmine and CX-4945” value was 10 times; the “luciferase activity compared with condition without DYRK1A overexpression” value is given as “higher than the luciferase activity of the condition that DYRK1A was not overexpressed”. For the same compound, the C-met kinase inhibition entry on C-met kinase is recorded as “inhibitors of the C-met kinase”.

Take `Cn1cc(-c2cnc(N)c(-c3nc4cnccc4o3)c2)cn1` [formula 4]: at DYRK1A [1], the luciferase increase effect result is on record as “highest luciferase increase effect”; the “activity level compared with harmine and CX-4945” value is recorded as “clearly higher”.

`CCN1/C(=C/C(C)=O)Sc2ccc(OC(C)=O)cc21` [proINDY, reference compound] registered an IC50 against DYRK1A [2] of around 3000 nM.

The values are drawn from patent publication US10765669B2, “Pharmaceutical composition for preventing or treating DYRK-related diseases, containing pyridine-based compound as active ingredient” (KOREA RESEARCH INSTITUTE OF BIOSCIENCE AND BIOTECHNOLOGY, priority 2016, dated 2020).
